Source: paper PMC5224920, “Assessing the mechanism and therapeutic potential of modulators of the human Mediator complex-associated protein kinases” (eLife, 2016)
pIC50: −log10 of the molar value.

What was measured:
[1] = test system: DLD1; assay: 14 d colony growth assay, DLD1; type: cell-based, human; conditions: 350 nM, mean (range), n = 2
[2] = molecular target: GSK3α (Homo sapiens, UniProt P49840); assay: Off-target kinase IC50, GSK3α; type: biochemical
[3] = test system: SW620; assay: 14 d colony growth assay, SW620; type: cell-based, human; conditions: 350 nM, mean (range), n = 2
[4] = test system: RKO; assay: 14 d colony growth assay, RKO; type: cell-based, human; conditions: 350 nM, mean (range), n = 2
[5] = test system: LS180; assay: 14 d colony growth assay, LS180; type: cell-based, human; conditions: 350 nM, mean (range), n = 2
[6] = test system: HT29; assay: 14 d colony growth assay, HT29; type: cell-based, human; conditions: 350 nM, mean (range), n = 2
[7] = test system: colorectal PDX tumor models; assay: Colorectal cancer PDX in vivo therapy; parameters: species or system human; conditions: six colorectal PDX models; p<0.0001
Source text: To follow up our standard xenograft experiments, we next tested compound activity in human patient-derived tumor xenograft models (PDXs). Firstly, we determined if our compounds were active in in vitro soft agar clonogenic assays, using cells derived from 89 distinct PDX models from different tissue types. In this assay, colony growth was inhibited, but only by up to 50%, in one-third of PDX cell cultures treated with tool compound 2 (Figure 3A–B). Six of the more sensitive colorectal PDX tumor models were selected for in vivo monotherapy either with the lead compound 3 alone, or combined with a standard of care drug (irinotecan or oxaliplatin). […] Importantly, the combination of 3 with standard of care therapies was only of statistically significant benefit in one colorectal tumor model, CFX 1034 (p<0.001; Figure 3C and Figure 3—figure supplement 1).
PDX experiments were conducted at Oncotest (Germany).

GSK3α, sequence (P49840 whole entry, species assumed): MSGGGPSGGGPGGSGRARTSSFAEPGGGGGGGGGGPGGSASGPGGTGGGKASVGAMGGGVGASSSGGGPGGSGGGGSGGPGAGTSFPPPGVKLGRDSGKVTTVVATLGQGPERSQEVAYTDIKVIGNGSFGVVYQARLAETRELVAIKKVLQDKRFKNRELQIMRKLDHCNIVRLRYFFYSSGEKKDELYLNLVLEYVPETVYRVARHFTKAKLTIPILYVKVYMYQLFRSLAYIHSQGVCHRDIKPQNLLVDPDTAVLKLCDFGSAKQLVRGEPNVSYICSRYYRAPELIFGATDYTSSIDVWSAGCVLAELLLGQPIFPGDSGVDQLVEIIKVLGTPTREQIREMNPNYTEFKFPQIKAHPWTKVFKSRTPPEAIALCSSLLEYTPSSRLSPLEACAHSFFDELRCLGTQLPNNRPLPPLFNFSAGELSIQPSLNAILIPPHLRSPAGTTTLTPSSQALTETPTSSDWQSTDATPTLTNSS

Row | SMILES | 14 d colony growth (relative to control) [1] | pIC50 [2] | 14 d colony growth (relative to control) [3] | 14 d colony growth (relative to control) [4] | 14 d colony growth (relative to control) [5] | 14 d colony growth (relative to control) [6] | Response of colorectal PDX tumor models to monotherapy [7]
1 | Cc1n[nH]c2ncc(C(=O)N3CCC[C@H]3c3ccc(Cl)cc3)cc12 [CMPD 4] | 0.66 (0.07) | 6.16 | 0.17 (0.01) | 0.98 (0.07) | 0.13 (0.03) | 0.43 (0.01) | 
2 | Cn1ncc2cc(-c3cnc(N)c(Cl)c3N3CCC4(CCNC4=O)CC3)ccc21 [CMPD 3] |  |  |  |  |  |  | Only two of these colorectal cancer PDX tumors models, CFX 883 and CFX 1753, responded
